From the NIST ThermoML archive (doi:10.1016/j.tca.2004.11.001)

Assay: molar heat capacity at constant pressure; xn = mol fraction of the nth substance listed
Details: 101.33 kPa, Liquid

CCCCCCOCCOCCOCCOCCOCCO [2-(hexyloxytetraethoxy)ethanol] + O
molar heat capacity at constant pressure [J/K/mol]
Details | 283 K | 288 K | 298 K | 308 K | 318 K | 328 K | 338 K
x1 = 0.00036 | 75.88 | 75.76 | 75.66 | 75.64 | 75.68 | 75.77 | 75.85
x1 = 0.00072 | 76.25 | 76.13 | 76.04 | 76.03 | 76.07 | 76.14 | 76.23
x1 = 0.00106 | 76.6 | 76.5 | 76.43 | 76.42 | 76.46 | 76.53 | 76.6
x1 = 0.00146 | 77.04 | 76.94 | 76.92 | 76.95 | 76.95 | 76.93 | 76.96
x1 = 0.00175 | 77.35 | 77.33 | 77.41 | 77.35 | 77.25 | 77.18 | 77.19
x1 = 0.0018 | 77.46 | 77.42 | 77.48 | 77.44 | 77.35 | 77.28 | 77.3
x1 = 0.00235 | 78.13 | 78.25 | 78.2 | 78.06 | 77.88 | 77.81 | 77.83
x1 = 0.00281 | 78.98 | 78.99 | 78.74 | 78.45 | 78.27 | 78.21 | 78.27
x1 = 0.00324 | 79.99 | 79.7 | 79.24 | 78.86 | 78.68 | 78.63 | 78.61
x1 = 0.00357 | 80.51 | 80.06 | 79.53 | 79.18 | 78.99 | 78.93 | 78.99
x1 = 0.00398 | 81 | 80.46 | 79.78 | 79.43 | 79.29 | 79.25 | 79.27
x1 = 0.00473 | 81.76 | 81.26 | 80.57 | 80.19 | 80.01 | 79.95 | 79.97
x1 = 0.00503 | 82.06 | 81.55 | 80.85 | 80.47 | 80.3 | 80.24 | 80.25
x1 = 0.00543 | 82.41 | 81.91 | 81.22 | 80.85 | 80.67 | 80.61 | 80.57
x1 = 0.00585 | 82.79 | 82.27 | 81.58 | 81.22 | 81.05 | 80.99 | 81.01
x1 = 0.0063 | 83.1 | 82.58 | 81.9 | 81.54 | 81.37 | 81.31 | 81.32
x1 = 0.0069 | 83.54 | 83.03 | 82.38 | 82.04 | 81.89 | 81.82 | 81.83
x1 = 0.00752 | 84.02 | 83.53 | 82.92 | 82.62 | 82.49 | 82.43 | 82.46
x1 = 0.00819 | 84.48 | 84.03 | 83.46 | 83.18 | 83.06 | 83.02 | 83.06
x1 = 0.00886 | 85 | 84.56 | 84.02 | 83.75 | 83.64 | 83.61 | 83.65
x1 = 0.00969 | 85.51 | 85.11 | 84.64 | 84.42 | 84.35 | 84.37 | 84.46
x1 = 0.0118 | 87.08 | 86.76 | 86.37 | 86.21 | 86.16 | 86.19 | 86.22
x1 = 0.01312 | 88 | 87.75 | 87.46 | 87.33 | 87.3 | 87.32 | 87.37
x1 = 0.01647 | 90.68 | 90.57 | 90.49 | 90.48 | 90.51 | 90.58 | 90.44
x1 = 0.01786 | 91.44 | 91.39 | 91.36 | 91.4 | 91.49 | 91.6 | 91.72
x1 = 0.01996 | 92.94 | 92.97 | 93.07 | 93.17 | 93.26 | 93.31 | 93.32
x1 = 0.02247 | 94.73 | 94.84 | 95.04 | 95.24 | 95.42 | 95.55 | 95.59
x1 = 0.02729 | 98.3 | 98.56 | 99 | 99.32 | 99.54 | 99.68 | 99.81
x1 = 0.0303 | 100.51 | 100.88 | 101.48 | 101.9 | 102.19 | 102.38 | 102.52
x1 = 0.03518 | 103.98 | 104.48 | 105.27 | 105.84 | 106.24 | 106.51 | 106.68
x1 = 0.0397 | 107.24 | 107.83 | 108.77 | 109.44 | 109.93 | 110.24 | 110.48
x1 = 0.04518 | 111.01 | 111.69 | 112.79 | 113.6 | 114.17 | 114.53 | 114.82
x1 = 0.05201 | 115.67 | 116.48 | 117.75 | 118.68 | 119.37 | 119.87 | 120.21
x1 = 0.06018 | 121.38 | 122.34 | 123.83 | 124.98 | 125.84 | 126.57 | 126.88
x1 = 0.07563 | 131.77 | 132.81 | 134.56 | 135.97 | 137.1 | 137.96 | 138.56
x1 = 0.09777 | 146.15 | 147.28 | 149.31 | 151.06 | 152.51 | 153.69 | 154.59
x1 = 0.1356 | 170.77 | 171.98 | 174.29 | 176.42 | 178.34 | 180.03 | 181.46
x1 = 0.1978 | 210.08 | 211.39 | 213.91 | 216.46 | 218.95 | 221.31 | 223.41
x1 = 0.3066 | 278.42 | 279.68 | 282.35 | 285.3 | 288.41 | 291.49 | 294.37
x1 = 0.6924 | 513.75 | 515.35 | 519.97 | 524.59 | 529.47 | 534.66 | 538.64
x1 = 1 | 686.95 | 689.21 | 693.95 | 698.98 | 704.91 | 711.23 | 716.97
